Consider two compounds from US12427192B2, “Water soluble adjuvant and composition containing same” (Sumitomo Pharma Co., Ltd., priority 2019, dated 2025).

What is called EC50 is the concentration giving half of the maximal effect.

One experiment concerns the target T1, human TLR7 (Homo sapiens, UniProt Q9NYK1).
T1 construct: expresses full-length human TLR7 and secretory alkaline phosphatase (SEAP) reporter gene; host or cells: HEK293 (TLR7/NF-κB/SEAPorter)
T1 sequence (Q9NYK1 27-1049): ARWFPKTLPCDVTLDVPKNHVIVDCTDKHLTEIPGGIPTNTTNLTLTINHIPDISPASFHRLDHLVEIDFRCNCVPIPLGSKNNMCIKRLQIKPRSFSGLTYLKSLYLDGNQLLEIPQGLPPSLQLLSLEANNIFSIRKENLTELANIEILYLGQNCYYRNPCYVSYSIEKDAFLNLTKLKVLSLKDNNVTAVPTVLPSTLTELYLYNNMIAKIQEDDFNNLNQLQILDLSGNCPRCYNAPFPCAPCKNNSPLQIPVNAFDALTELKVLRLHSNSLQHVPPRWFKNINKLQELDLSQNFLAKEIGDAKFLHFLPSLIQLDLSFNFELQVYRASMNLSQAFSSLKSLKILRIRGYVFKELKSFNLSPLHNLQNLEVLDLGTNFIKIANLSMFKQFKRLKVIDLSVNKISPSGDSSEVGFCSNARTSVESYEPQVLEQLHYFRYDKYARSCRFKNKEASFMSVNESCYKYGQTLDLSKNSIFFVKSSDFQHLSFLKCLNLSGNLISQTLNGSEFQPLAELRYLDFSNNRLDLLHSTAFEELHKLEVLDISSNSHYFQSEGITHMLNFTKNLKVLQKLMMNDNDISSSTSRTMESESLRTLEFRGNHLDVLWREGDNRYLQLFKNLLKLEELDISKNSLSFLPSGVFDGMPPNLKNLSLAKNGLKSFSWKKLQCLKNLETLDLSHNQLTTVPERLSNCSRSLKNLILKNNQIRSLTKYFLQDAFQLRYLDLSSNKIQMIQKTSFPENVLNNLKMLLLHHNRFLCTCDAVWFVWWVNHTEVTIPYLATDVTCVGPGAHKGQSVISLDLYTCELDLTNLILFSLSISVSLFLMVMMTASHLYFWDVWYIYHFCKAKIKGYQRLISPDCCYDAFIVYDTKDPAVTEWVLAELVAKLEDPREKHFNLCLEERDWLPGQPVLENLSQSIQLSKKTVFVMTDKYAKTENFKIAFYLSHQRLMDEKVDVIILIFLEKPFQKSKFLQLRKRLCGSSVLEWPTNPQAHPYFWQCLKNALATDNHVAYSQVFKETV
The experiment is described as follows: Human TLR7 reporter gene assay (TLR7/NF-κB/SEAPorter HEK293 cell line), Tests 1 and 21. The format is cell-based. The note with it: Test 1; TLR7/NF-κB/SEAPorter HEK293 cell line; half of maximal SEAP induction; 24-hour incubation, 0.1% DMSO; read-out: EC50. From the text:
Human TLR7 Reporter Gene Assay
TLR7/NF-κB/SEAPorter™ HEK293 cell line (Imgenex Corporation) is a stably co-transfected cell line which expresses full-length human TLR7 and secretory alkaline phosphatase (SEAP) reporter gene under the transcriptional regulation of an NF-κB response element. The TLR7 expression of the cell line has been already tested by flow cytometry. Transfectants with stable expression were selected using the antibiotic blasticidin and Geneticin. TLR signaling leads to the translocation of NF-κB and the activation of the promoter results in expression of the SEAP gene. TLR7-specific activation was assessed by determining the level of SEAP produced following 24-hour incubation of the cells at 37° C. with each compound prepared in Examples and Reference examples in the presence of 0.1% (v/v) dimethylsulfoxide (DMSO). The human TLR7 activity for the present compound was assessed by human TLR7 reporter gene assay, and the results are shown in Tables 3 and 4 as the compound concentration which produced half of the maximal level of SEAP induction (EC50)
According to the method of Test 1, human TLR7 reporter gene assay was done with the following samples, and the result was shown in the table below.
On the technique in general: Reporter assays use an easily measured gene product as a stand-in for the process of interest.

The next experiment concerns the target T2, mouse TLR7 (Mus musculus, UniProt P58681).
T2 construct: expresses full-length mouse TLR7 and secretory SEAP reporter gene; host or cells: HEK-Blue mTLR7 (HEK293-derived)
T2 sequence (P58681 27-1050): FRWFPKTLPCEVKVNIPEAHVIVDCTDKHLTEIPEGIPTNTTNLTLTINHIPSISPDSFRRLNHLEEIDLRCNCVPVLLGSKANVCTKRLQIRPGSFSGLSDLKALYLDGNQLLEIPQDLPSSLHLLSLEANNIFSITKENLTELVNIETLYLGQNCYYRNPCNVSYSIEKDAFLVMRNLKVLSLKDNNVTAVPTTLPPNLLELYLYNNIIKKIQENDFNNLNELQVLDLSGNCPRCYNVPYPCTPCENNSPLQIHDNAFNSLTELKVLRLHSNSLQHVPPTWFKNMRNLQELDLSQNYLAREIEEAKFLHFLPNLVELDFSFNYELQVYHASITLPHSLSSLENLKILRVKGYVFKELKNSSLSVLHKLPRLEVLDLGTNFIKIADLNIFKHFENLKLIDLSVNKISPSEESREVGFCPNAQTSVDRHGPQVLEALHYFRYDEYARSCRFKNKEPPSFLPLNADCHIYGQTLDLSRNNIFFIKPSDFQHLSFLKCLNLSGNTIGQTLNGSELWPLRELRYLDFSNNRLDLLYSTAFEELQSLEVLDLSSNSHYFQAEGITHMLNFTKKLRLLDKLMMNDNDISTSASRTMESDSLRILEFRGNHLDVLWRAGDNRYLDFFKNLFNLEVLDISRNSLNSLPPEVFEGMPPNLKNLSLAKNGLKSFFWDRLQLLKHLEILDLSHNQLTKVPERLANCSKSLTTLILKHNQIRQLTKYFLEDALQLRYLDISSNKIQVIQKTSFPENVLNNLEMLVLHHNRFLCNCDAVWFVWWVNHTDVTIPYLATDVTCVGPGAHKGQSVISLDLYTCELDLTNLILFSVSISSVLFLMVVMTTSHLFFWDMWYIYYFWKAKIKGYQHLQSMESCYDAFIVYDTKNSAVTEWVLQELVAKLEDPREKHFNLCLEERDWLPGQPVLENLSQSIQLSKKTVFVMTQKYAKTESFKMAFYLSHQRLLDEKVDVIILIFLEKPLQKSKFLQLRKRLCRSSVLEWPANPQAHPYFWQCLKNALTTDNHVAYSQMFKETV
Briefly: Mouse TLR7 reporter gene assay (HEK-Blue mTLR7 cell line), Test 2. The format is cell-based. Conditions: half of maximal SEAP induction, 20-24-hour incubation, 0.1% DMSO. An excerpt:
Test 2 Mouse TLR7 Reporter Gene Assay
HEK-Blue™ mTLR7 cell line (Invivogen) is a stably co-transfected cell line which expresses full-length mouse TLR7 and secretory SEAP reporter gene under the transcriptional regulation of an NF-κB response element. The TLR7 expression of the cell line has been already tested by RT-PCR. Transfectants with stable expression were selected using the antibiotic blasticidin and Zeocin. TLR signaling leads to the translocation of NF-κB and the activation of the promoter results in expression of the SEAP gene. TLR7-specific activation was assessed by determining the level of SEAP produced following 20-24-hour incubation of the cells at 37° C. with each compound prepared in Examples and Reference examples in the presence of 0.1% (v/v) DMSO. The mouse TLR7 activity for the present compound was assessed by mouse TLR7 reporter gene assay, and the results are shown in Tables 5 and 6 as the compound concentration which produced half of the maximal level of SEAP induction (EC50).

Molecules are shown by their SMILES.

For `CCCCCNc1nc(N)nc(C)c1Cc1ccc(CN(C)CCOCCOCCOCCOCCO)cc1OC` [Example 1, 1-(4-{[2-amino-4-methyl-6-(pentylamino)pyrimidin-5-yl]methyl}-3-methoxyphenyl)-2-methyl-5,8,11,14-tetraoxa-2-azahexadecan-16-ol·trifluoroacetate], the concentration giving a half-maximal response (EC50) on human TLR7 came to 68 nM; at mouse TLR7 it was 28 nM.

As for `CCCCCNc1nc(N)nc(C)c1Cc1ccc(CNC)cc1OC` [Reference example 12, 5-({2-methoxy-4-[(methylamino)methyl]phenyl}methyl)-6-methyl-N^4-pentylpyrimidine-2,4-diamine, reference compound], the EC50 on human TLR7 was determined as 50 nM; at mouse TLR7 it was 15 nM.
